Experimental data from patent US20150183890A1, “Methods for Formation of Cyclodextrin-Ursolic Acid Inclusion Complex” (Campbell Industries, priority 2013, published 2015).

Test: Aqueous solubility of cyclodextrin-ursolic acid inclusion complex versus ursolic acid alone
Type: physicochemical
Conditions: aqueous solutions; CDUA compared with UA alone

aqueous solubility (in words): largely insoluble
Compound: C[C@H]1[C@H](C)CC[C@]2(C(=O)O)CC[C@]3(C)C(=CC[C@@H]4[C@@]5(C)CC[C@H](O)C(C)(C)[C@@H]5CC[C@]43C)[C@H]12 [UA, 3-β-hydroxy-urs-12-en-28-oic acid]
